Source: PMC12220852, “An adamantane‐based ligand as a novel chemical tool for thermosensory TRPM8 channel therapeutic modulation” (The Febs Journal, 2025)

What was measured:
[1] = Metabolic stability in mouse plasma; format: in vitro ADME; settings: after 1 h at 37 °C, 100 μM substrate
Method: Because of the lack of systemic activity of compound 23, we evaluated the in vitro plasmatic and hepatic metabolic stability. To this aim, compound 23 was exposed to mouse plasma and mouse liver microsome (MLM) fractions, and the residual substrate was measured after 1 h. Under these conditions, the residual substrate was about 97% and 90% in plasma and microsomes, respectively, denoting that this molecule suffers from mild hydrolysis of the ester group.
The standard incubation mixture (100 μL final volume) was carried out by dissolving the tested substrate (100 μM) in DMSO (5% final volume) in preincubated plasma at 37 °C. The mixture was shaken for 60 min at 37 °C. Control incubations were carried out without substrate. Each incubation was stopped by addition of 200 μL of ice‐cold acetonitrile, vortexed, and centrifuged at 13 000 r.p.m. for 10 min. The supernatants were analyzed by LC‐UV [68].
The metabolic stability of the compound 23 was determined in vitro by measuring the residual peak area after incubation by LC‐UV analysis. Samples were further processed by LC‐HRMS equipment for metabolite profiling. Raw data files were processed using both XCALIBUR® and COMPOUND DISCOVERER 3.2® software (Thermo Scientific) using a customized workflow for the detection and identification of the expected and unknown metabolites (Fig. S80).

[2] = target: T1, recombinant human TRPM8 stably expressed in HEK293 cells (hTRPM8) (Homo sapiens, UniProt Q7Z2W7); test: Ca2+ microfluorimetry screen for agonist/antagonist activity in hTRPM8-HEK293 cells; format: cell-based
T1 construct: expressed in transfected cells
From the text: We first evaluated the series of compounds 20–29 synthesized using the Passerini‐Adamantane reaction. All compounds were screened for channel agonism and antagonism on recombinant human TRPM8 stably expressed in HEK293 cells (hTRPM8‐HEK293) with Ca^2+ microfluorimetry. […] Compound‐induced TRPM8‐mediated Ca^2+ influx was confirmed using untransfected HEK293 cells and the channel blocker AMTB. […] The concentration of compounds to reach half of channel activation (EC50) or to block half‐channel activity evoked by WS‐12 (IC50) are reported in Table 1, along with the percentage of maximal activation or blockade (Efficacy).
Assays were conducted to assess the channel activity of the recombinant hTRPM8 stably expressed in HEK‐293 cells. HEK‐293‐hTRPM8 cells were cultured in a monolayer using a DMEM GlutaMax with 10% FBS and 1% P/S and maintained at 37 °C in 5% CO2. For experiments, cells were prepared and seeded at the indicated densities. To evaluate compound effectiveness against hTRPM8 activity, microfluorometry‐based calcium flux assays were performed using Fluo‐4 NW Ca^2+ dye and fluorescence detection. HEK cell lines expressing hTRPM8 were seeded in 96‐well plates and incubated with the dye‐loading solution. Ion channel activity was measured using a plate reader, and fluorescence intensity changes were recorded following the addition of vehicle, compound at varying concentrations, and antagonist (10 μM AMTB). Data analysis included calculating the Z‐factor for each assay and normalizing compound effects to […]. Data were analyzed to determine the concentration exerting half‐maximal inhibition (IC50) or activation (EC50) of agonist‐induced calcium elevation, using GRAPHPAD PRISM8® software (Boston, MA, USA). All experiments were conducted in triplicate, and results are presented as mean ± standard deviation.

[3] = target: T2, neuronal TRPM8 channels (mTRPM8) in dorsal root ganglion neurons (Mus musculus, UniProt Q8R4D5); test: Patch-clamp of WS-12-evoked currents in primary DRG nociceptor cultures; format: cell-based, murine; settings: WS-12 evoked current, −60 mV, N = 3, n = 8; read-out: IC50 of mTRPM8 current blockade in DRG neurons
T2 construct: neuronal TRPM8 channels expressed in murine primary nociceptor cultures; endogenous in cells; host or cells: primary cultures of mouse dorsal root ganglion neurons
From the text: To examine the in vivo activity of compound 23, we first investigated its inhibitory potency on neuronal TRPM8 channels expressed in murine primary nociceptor cultures by patch‐clamp. […] Alternatively, it could also be due to distinct gating mechanisms of both orthologs or the influence of the neuronal environment.
Primary cultures of neonatal dorsal root ganglia were used for multielectrode array (MEA) and patch‐clamp experiments following established methodologies previously described. Neonatal dorsal root ganglia (DRGs) were obtained from Wistar rats (3–5 days old) and were isolated and digested with 0.25% (w/v) collagenase (type IA) in DMEM GlutaMax with 1% (v/v) penicillin/streptomycin (P/S) solution for 1 h at 37 °C in a 5% CO2 Thermo Scientific incubator. Following digestion, DRGs were mechanically dissociated and passed through a 100 μm cell strainer to obtain single‐cell suspensions. Suspensions were washed with DMEM GlutaMax with 10% (v/v) fetal bovine serum (FBS) and 1% (v/v) penicillin/streptomycin (P/S). Cells were then seeded in microelectrode array chambers coated with poly‐L‐lysine (8.3 μg·mL^−1) and laminin (5 μg·mL^−1). After 1 h, the medium was replaced with DMEM GlutaMax, 10% (v/v) FBS, and 1% (v/v) P/S, supplemented with mouse 2.5S NGF 50 ng·mL^−1 and 1.25 μg·mL^−1 cytosine arabinoside. […]

T1 sequence (Q7Z2W7 whole entry): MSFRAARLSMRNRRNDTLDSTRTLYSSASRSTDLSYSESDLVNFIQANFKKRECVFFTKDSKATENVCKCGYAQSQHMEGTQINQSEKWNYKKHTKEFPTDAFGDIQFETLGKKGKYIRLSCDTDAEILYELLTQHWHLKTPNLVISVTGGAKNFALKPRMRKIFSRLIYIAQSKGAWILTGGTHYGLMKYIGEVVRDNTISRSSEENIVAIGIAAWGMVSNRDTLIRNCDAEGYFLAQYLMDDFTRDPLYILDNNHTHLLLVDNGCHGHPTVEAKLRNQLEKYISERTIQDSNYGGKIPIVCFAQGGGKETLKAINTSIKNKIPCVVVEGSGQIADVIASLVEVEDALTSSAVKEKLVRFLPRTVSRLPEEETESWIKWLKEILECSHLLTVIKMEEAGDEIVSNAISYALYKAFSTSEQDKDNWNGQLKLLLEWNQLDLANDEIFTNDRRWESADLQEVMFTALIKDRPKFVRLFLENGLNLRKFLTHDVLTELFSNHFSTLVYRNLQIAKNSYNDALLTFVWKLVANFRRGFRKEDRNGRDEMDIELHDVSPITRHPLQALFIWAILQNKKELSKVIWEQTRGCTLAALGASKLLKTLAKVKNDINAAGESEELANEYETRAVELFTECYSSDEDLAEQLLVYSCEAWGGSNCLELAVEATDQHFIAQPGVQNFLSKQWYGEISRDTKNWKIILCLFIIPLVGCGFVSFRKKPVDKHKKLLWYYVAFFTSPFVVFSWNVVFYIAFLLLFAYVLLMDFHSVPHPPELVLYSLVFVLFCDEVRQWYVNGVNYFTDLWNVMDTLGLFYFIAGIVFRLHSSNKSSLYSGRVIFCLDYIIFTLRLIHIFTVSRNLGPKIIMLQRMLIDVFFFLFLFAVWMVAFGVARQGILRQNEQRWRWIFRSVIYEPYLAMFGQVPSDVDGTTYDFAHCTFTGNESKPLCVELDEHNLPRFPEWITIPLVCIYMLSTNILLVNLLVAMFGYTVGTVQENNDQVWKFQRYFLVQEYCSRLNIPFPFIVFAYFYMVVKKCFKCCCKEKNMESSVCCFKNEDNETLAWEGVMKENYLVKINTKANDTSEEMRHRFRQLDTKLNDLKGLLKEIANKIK
T2 sequence (Q8R4D5 whole entry): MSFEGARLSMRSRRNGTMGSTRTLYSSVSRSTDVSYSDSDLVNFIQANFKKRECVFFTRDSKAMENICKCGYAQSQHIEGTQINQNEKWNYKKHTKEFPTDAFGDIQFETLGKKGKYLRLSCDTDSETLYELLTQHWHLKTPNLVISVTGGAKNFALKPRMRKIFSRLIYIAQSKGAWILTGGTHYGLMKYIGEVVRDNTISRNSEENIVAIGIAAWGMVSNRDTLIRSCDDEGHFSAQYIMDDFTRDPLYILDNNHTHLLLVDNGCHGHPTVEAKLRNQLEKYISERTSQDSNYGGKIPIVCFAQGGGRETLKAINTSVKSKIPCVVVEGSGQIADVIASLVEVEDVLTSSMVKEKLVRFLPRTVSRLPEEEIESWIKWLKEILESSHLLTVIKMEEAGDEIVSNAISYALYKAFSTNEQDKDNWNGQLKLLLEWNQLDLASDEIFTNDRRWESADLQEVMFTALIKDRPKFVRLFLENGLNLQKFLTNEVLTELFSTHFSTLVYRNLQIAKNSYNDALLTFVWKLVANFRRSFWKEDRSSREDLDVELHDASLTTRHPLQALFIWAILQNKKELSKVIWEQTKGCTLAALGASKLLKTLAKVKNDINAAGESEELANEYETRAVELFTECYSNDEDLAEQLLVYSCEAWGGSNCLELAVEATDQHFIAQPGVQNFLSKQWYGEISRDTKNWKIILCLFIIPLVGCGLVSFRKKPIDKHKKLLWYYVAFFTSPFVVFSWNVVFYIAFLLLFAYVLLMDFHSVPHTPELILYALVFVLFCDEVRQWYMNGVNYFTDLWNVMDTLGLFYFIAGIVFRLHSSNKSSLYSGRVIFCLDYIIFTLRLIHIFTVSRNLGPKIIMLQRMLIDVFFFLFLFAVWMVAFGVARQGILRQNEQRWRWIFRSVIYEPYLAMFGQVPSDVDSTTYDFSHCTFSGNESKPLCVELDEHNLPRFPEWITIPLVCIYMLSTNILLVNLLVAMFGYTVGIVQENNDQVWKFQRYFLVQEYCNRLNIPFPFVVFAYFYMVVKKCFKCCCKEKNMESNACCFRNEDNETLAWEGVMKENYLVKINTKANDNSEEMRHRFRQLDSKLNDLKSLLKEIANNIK

residual substrate in mouse plasma [1]: about 97%
Activity (agonist/antagonist) ([2]; hTRPM8-HEK293, agonism = compound-induced Ca2+ influx, antagonism = modulation of WS-12-induced Ca2+ influx): Antagonist
IC50 ([2]; hTRPM8-HEK293, block of half channel activity evoked by WS-12, mean ± SD, N = 3, read-out: IC50): 200 nM
Hill coefficient ([2]; hTRPM8-HEK293 Ca2+ microfluorimetry dose-response, mean ± SD): 0.5 ± 0.9
IC50 [3]: 430 ± 750 nM
SMILES: O=C(COC(=O)c1ccccc1-c1ccccc1)NC12CC3CC(CC(C3)C1)C2 [Compound 23, 2‐((3S,5S,7S)‐adamantan‐1‐ylamino)‐2‐oxoethyl [1,1′‐biphenyl]‐2‐carboxylate]
